# Source: patent US8008077B2, “Photochemical internalization for delivery of molecules into the cytosol” (priority 2000, dated 2011)
# Legend:
# [1] = test system: THX cells; assay: Light-induced (PCI) transfection of THX cells with pEGFP-N1/polylysine complex, GFP expression by flow cytometry; type: cell-based, human; settings: for "light before" approach compared with "light after" approach, poly-L-lysine mediated transfection: photosensitiser 2 μg/ml TPPS2a or 75 μg/ml TPPS4, pEGFP-N1/PLL complex 4 h
# Experimental: (§1) The human melanoma cell line THX was established from tumour tissue obtained from a patient treated for metastatic malignant melanoma at the Norwegian Radium Hospital (Aamdal et al., 1986., Int. J. Cancer, 37, 579), and grown in RMPI 1640 (Gibco-BRL) supplemented with 10% FCS (Gibco-BRL) and 2 mM glutamine (Gibco-BRL). The human colon carcinoma cell line HCT 116 was obtained from American Type Culture Collection (ATCC no. CCL-247) and grown in RPMI 1640 medium supplemented with 10% foetal calf serum, 100 U/ml penicillin, […] streptomycin and 2 mM glutamine (all Gibco BRL, Paisley, UK).
# Two different light sources were used for treatment of the cells, both consisting of a bank of 4 fluorescent tubes. […]
# (§2) The cells were trypsinized, centrifuged, resuspended in 400 μl of culture medium and filtered through a 50 μm mesh nylon filter. Then the cells were analyzed by a FACS-Calibur (Becton Dickinson) flow cytometer. […] Fluorescein-fluorescence (for example green Fluorescent protein (GFP)) was measured through a 510-530 nm filter after excitation with an argon laser (200 mW) tuned on 488 nm. AlPcS2a was measured through a 670 nm longpass filter after excitation with a diode laser (50 mW) tuned on 635 nm. […] The data were analysed with CELLQuest Software (Becton Dickinson).
# THX cells were treated with 20 μg/ml AlPcS2a for 18 hours, washed and incubated in sensitizer-free medium for 3 hours followed by 1 hour incubation with 5 μg pEGFP-N1/polylysine complex before light exposure for 1, 2, 3 or 4 minutes. […] GFP expression was analysed by flow cytometry 48 hours after light exposure. […]
# THX cells were treated with 20 μg/ml AlPcS2a for 18 hours, washed and incubated in sensitizer-free medium for 4 hours before 3 minutes of light treatment. […] GFP expression was analysed by flow cytometry 48 hours after light exposure. […]
# [2] = test system: HCT 116 cells; assay: Light-induced (PCI) transfection of HCT 116 cells with pEGFP-N1/polylysine complex, GFP expression by flow cytometry; type: cell-based, human
# Experimental: as §1
# Two different light sources were used for treatment of the cells, both consisting of a bank of 4 fluorescent tubes. Cells treated with TPPS4, TPPS2a, and 3-THPP (Porphyrin Products, Logan, Utah) were exposed to blue light (model 3026; Appl. Photophysics, London, UK) with a light intensity reaching the cells of 1.5 mW/cm^2 while cells treated with AlPcS2a (Porphyrin Products, Logan, Utah) were exposed to red light (Philips TL 20W/09) filtered through a Cinemoid 35 filter with a light intensity reaching the cells of 1.35 mW/cm^2.
# […] The cells were treated with pEGFP-N1 polylysine complex for 4 hours immediately before or after exposure to light. […]
# as §2
# The cells were treated with pEGFP-N1/polylysine complex for 4 hours immediately before or after exposure to light as indicated on FIG. 2. The expression of GFP was measured by flow cytometry 2 days after the light exposure. […]
# [3] = test system: WiDr human adenocarcinoma; assay: PCI with gelonin for treatment of tumours in a mouse in vivo model; parameters: species or system Balb/c (nu/nu) mice; settings: for effect on tumour cure, in words: gelonin alone; for % TUMOUR-FREE MICE 30 DAYS AFTER ILLUMINATION / FRACTION TUMOUR-FREE MICE 30 DAYS AFTER ILLUMINATION: AlPcS2a 10 mg/kg i.p., gelonin 50 μg intratumorally where given
# Experimental: Water and food was given ad libitum. All procedures involving mice were carried out in agreement with the protocols approved by the animal care committee at the Norwegian Radium Hospital, under control by the National Ethical Committee's guidelines on animal welfare. The mice were on average 20-25 g (5-8 weeks old) at the start of the experiments, and we used at least 5 mice per experiment group. The WiDr human adenocarcinoma used in the present study, was propagated by serial transplantation into the Balb/c (nu/nu) mice. The tumours were minced to homogeneity by a scalpel and 20 μl of the solution injected subcutaneously on the right hip of each mouse. The tumour size was measured two or three times per week by measuring two perpendicular diameters. Tumour volume was calculated using the following formula: V=(W^2×L)/2 where W is the width and L the length diameters of the tumours measured. Treatment
# A stock solution of AlPcS2a was diluted to 1.25 mg/ml in PBS and injected intraperitoneally to a final concentration of 10 mg/kg when the tumours had reached a volume of approximately 100 mm^3. 48 h after the injection of AlPcS2a the tumours were exposed for 16 min to red light (see below). Immediately after light exposure gelonin (50 μg total amount in a 2 mg/ml solution, i.e. 25 μl) was injected intratumorally. The mice were kept in the dark for 1 week after the injection of AlPcS2a.
# The tumours were illuminated with a 150 W halogen lamp (Xenophot HLX64640) filtered with a 580 nm long pass and a 700 nm short pass filter emitting 150 mW/cm^2. The animals were covered with aluminium foil except above the tumour area where a hole in the foil with a diameter 2 mm larger than the tumour diameter had been made. The tumours were exposed to 145 J/cm^2 of light. Tumour volumes were measured two or three times per week as described above. Mice were killed when the tumours reach a diameter of approximately 20 mm. The fraction of tumour-free mice 30 days after illumination was scored (Table 1), and the mean tumour volume in each treatment group was recorded (FIG. 25).
# [4] = test system: THX cells; assay: Gelonin toxicity after photochemical treatment, protein synthesis by [3H]-leucine incorporation, THX cells; type: cell-based, human
# Experimental: THX cells were incubated with 20 μg/ml AlPcS2a for 18 hours followed by 4 hours in sensitizer-free medium before exposure to light. The cells were either co-treated with AlPcS2a and 1 μg/ml gelonin, or gelonin (1 μg/ml) was added to the medium immediately after light exposure for 18 hours after which it was removed from the medium as indicated on FIG. 3. Protein synthesis was measured 24 hours after light exposure.
# (§3) For the treatment with gelonin 25×10^3 cells per well were seeded out into 24-well plates (Nunc, Denmark). The next day 20 μg/ml AlPcS2a was added, and the cells were incubated for 18 h at 37° C. All the procedures after AlPcS2a addition were carried out in subdued light. For the “light before” strategy, the cells were washed from AlPcS2a and incubated in AlPcS2a-free medium for 4 h. Then the cells were exposed to light (as indicated in the figures) before the treatment with 1 μg/ml gelonin for 18 h. For the “light after” strategy the cells were co-incubated with 20 μg/ml AlPcS2a and 1 μg/ml gelonin for 18 h, and washed before exposure to light as indicated in the figure.
# (§4) Non-illuminated cells were treated in a similar way except for illumination. The treated cells were washed once with culture medium and after addition of fresh medium incubated at 37° C. before further analysis. Inhibition of protein synthesis was assayed by [^3H]-leucine incorporation into protein 24 h after light exposure. Illumination was performed from a bench with four light tubes (Philips TL 20W/09) and a long pass filter with a cut off at 550-600 nm. The light intensity reaching the cells was 13.5 W/m^2.
# [5] = test system: HCT 116 cells; assay: Gelonin toxicity after photochemical treatment, protein synthesis by [3H]-leucine incorporation, HCT 116 cells; type: cell-based, human; settings: 1 μg/ml gelonin 18 h
# Experimental: as §3, §4
# [6] = with light (145 J/cm^2; "light before" gelonin)
compound,measurement,setting,value
"O=S(=O)(O)c1ccc(-c2c3nc(c(-c4ccc(S(=O)(=O)O)cc4)c4ccc([nH]4)c(-c4ccccc4)c4nc(c(-c5ccccc5)c5ccc2[nH]5)C=C4)C=C3)cc1 [TPPS2a, Tetraphenylporphine disulfonate]","""light before"" approach compared with ""light after"" approach, poly-L-lysine mediated transfection",[1],works as well as
same,"""light before"" approach compared with ""light after"" approach, poly-L-lysine mediated transfection","[2]; HCT 116 cells, TPPS2a, pEGFP-N1/PLL complex 4 h",works as well as
Oc1cccc(-c2c3nc(c(-c4cccc(O)c4)c4ccc([nH]4)c(-c4cccc(O)c4)c4nc(c(-c5cccc(O)c5)c5ccc2[nH]5)C=C4)C=C3)c1 [3-THPP],increase in GFP expression with this photosensitizer,"[1]; 0.25 μg/ml 3-THPP 18 h, light before 1 h pEGFP-N1/polylysine complex",only a minor increase in GFP expression
O=S(=O)(O)c1ccc(-c2c3nc(c(-c4ccc(S(=O)(=O)O)cc4)c4ccc([nH]4)c(-c4ccc(S(=O)(=O)O)cc4)c4nc(c(-c5ccc(S(=O)(=O)O)cc5)c5ccc2[nH]5)C=C4)C=C3)cc1 [TPPS4],"""light before"" approach compared with ""light after"" approach, poly-L-lysine mediated transfection",[1],works slightly better
same,"""light before"" approach compared with ""light after"" approach, poly-L-lysine mediated transfection","[2]; 75 μg/ml TPPS4, text prints THX cells, heading and FIG. 19 HCT 116 cells",works as well as
Gelonin: plant toxin which efficiently inhibits protein synthesis when it is present in the cytosol of cells,"effect on tumour cure, in words","[3]; with additional light treatment, without AlPcS2a (group 4)",no effect
same,"effect on tumour cure, in words",[3]; without light (group 3),no effect
same,% TUMOUR-FREE MICE 30 DAYS AFTER ILLUMINATION,[3]; [6],0%
same,FRACTION TUMOUR-FREE MICE 30 DAYS AFTER ILLUMINATION,[3]; [6],0/5
same,tumour growth (mean tumour volume),[3]; without light,grew as fast as in animals given a placebo treatment
same,% TUMOUR-FREE MICE 30 DAYS AFTER ILLUMINATION,[3]; without light,0%
same,FRACTION TUMOUR-FREE MICE 30 DAYS AFTER ILLUMINATION,[3]; without light,0/8
same,toxic effect of gelonin in itself without the PCI treatment,[4]; 1 μg/ml gelonin 18 h,no toxic effect
same,inhibition of protein synthesis compared with photochemical treatment in the absence of gelonin,"[4]; 1 μg/ml gelonin before or after photochemical treatment (20 μg/ml AlPcS2a + light), 24 h after light",significantly greater inhibition of protein synthesis
same,"""light before"" strategy compared with ""light after"" method, inhibition of protein synthesis","[4]; 20 μg/ml AlPcS2a, 1 μg/ml gelonin 18 h",works better
same,"inhibition of protein synthesis, ""light before"" relative to ""light after""",[4]; highest light dose,about 3 fold
same,toxic effect of gelonin in itself without the PCI treatment,[5],no toxic effect
same,"""light before"" strategy compared with ""light after"" method, inhibition of protein synthesis",[5]; 20 μg/ml AlPcS2a,works better
poly-D-lysine,"PCI with the ""light before"" protocol, poly-D-lysine as transfection agent","[2]; HCT 116 cells, complex with pEGFP-N1, variable irradiation times",works well
